What follows are compounds tested on MV4-11 (assay: cell viability (% survival relative to DMSO control); higher = less cytotoxic). Details: drug1 concentration 100 nM; drug2 concentration 1000 nM; 72 h.
Description: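 8x8 drug-combination matrices (0–5000 nM; rosiglitazone and lestaurtinib 0–1000 nM) were run in MV4-11 cells for 72 h with CellTiter-Glo read-out. Survival is normalised to DMSO and 10 µM bortezomib and clipped at 100%.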
O=C(C1CC1)N1CC[C@@H](C=C2NNC(=O)N2c2ccc(-c3ccc4occc4c3)cc2)C1 + O=C(c1c2ccccc2cc2ccccc12)N1CCC(N2CCC[C@@H](C(=O)N3CCOCC3)C2)CC1 [CP-640186] showed a cell viability greater than 100%. CC(C)c1onc(-c2c(Cl)cccc2Cl)c1COc1ccc(/C=C/c2cccc(C(=O)O)c2)c(Cl)c1 [GW4064] + Cn1cc(-c2ccncc2)c(-c2ccc(OCc3ccc4ccccc4n3)cc2)n1 [PF-02545920] gave a cell viability of 91.1%.

Same assay, conditions: drug1 concentration 100 nM; drug2 concentration 5000 nM; 72 h
Work on O=C(C1CC1)N1CC[C@@H](C=C2NNC(=O)N2c2ccc(-c3ccc4occc4c3)cc2)C1 + CS(=O)(=O)N1CCN(Cc2cc3nc(-c4cccc5[nH]ncc45)nc(N4CCOCC4)c3s2)CC1 [Pictilisib] yielded a cell viability of 68.8%. O=C(C1CC1)N1CC[C@@H](C=C2NNC(=O)N2c2ccc(-c3ccc4occc4c3)cc2)C1 + C[C@H](NC(=O)c1sccc1OCc1ccc(Cl)cc1)c1ccccc1 [as1949490] gave a cell viability of 79.5%. O=C(C1CC1)N1CC[C@@H](C=C2NNC(=O)N2c2ccc(-c3ccc4occc4c3)cc2)C1 + O=C(c1c2ccccc2cc2ccccc12)N1CCC(N2CCC[C@@H](C(=O)N3CCOCC3)C2)CC1 [CP-640186] showed a cell viability greater than 100%. In the case of CC(C)c1onc(-c2c(Cl)cccc2Cl)c1COc1ccc(/C=C/c2cccc(C(=O)O)c2)c(Cl)c1 [GW4064] + Cn1cc(-c2ccncc2)c(-c2ccc(OCc3ccc4ccccc4n3)cc2)n1 [PF-02545920], the cell viability is reported as 53.3%.

Same assay, conditions: drug1 concentration 500 nM; drug2 concentration 5 nM; 72 h
O=C(C1CC1)N1CC[C@@H](C=C2NNC(=O)N2c2ccc(-c3ccc4occc4c3)cc2)C1 + CS(=O)(=O)N1CCN(Cc2cc3nc(-c4cccc5[nH]ncc45)nc(N4CCOCC4)c3s2)CC1 [Pictilisib] showed a cell viability greater than 100%. Compound O=C(C1CC1)N1CC[C@@H](C=C2NNC(=O)N2c2ccc(-c3ccc4occc4c3)cc2)C1 + C[C@H](NC(=O)c1sccc1OCc1ccc(Cl)cc1)c1ccccc1 [as1949490] has a cell viability greater than 100%. Work on O=C(C1CC1)N1CC[C@@H](C=C2NNC(=O)N2c2ccc(-c3ccc4occc4c3)cc2)C1 + O=C(c1c2ccccc2cc2ccccc12)N1CCC(N2CCC[C@@H](C(=O)N3CCOCC3)C2)CC1 [CP-640186] yielded a cell viability of 97.2%. Compound CC(C)c1onc(-c2c(Cl)cccc2Cl)c1COc1ccc(/C=C/c2cccc(C(=O)O)c2)c(Cl)c1 [GW4064] + Cn1cc(-c2ccncc2)c(-c2ccc(OCc3ccc4ccccc4n3)cc2)n1 [PF-02545920] has a cell viability greater than 100%.

Same assay, conditions: drug1 concentration 500 nM; drug2 concentration 10 nM; 72 h
Work on O=C(C1CC1)N1CC[C@@H](C=C2NNC(=O)N2c2ccc(-c3ccc4occc4c3)cc2)C1 + CS(=O)(=O)N1CCN(Cc2cc3nc(-c4cccc5[nH]ncc45)nc(N4CCOCC4)c3s2)CC1 [Pictilisib] yielded a cell viability of 72%. Work on O=C(C1CC1)N1CC[C@@H](C=C2NNC(=O)N2c2ccc(-c3ccc4occc4c3)cc2)C1 + C[C@H](NC(=O)c1sccc1OCc1ccc(Cl)cc1)c1ccccc1 [as1949490] yielded a cell viability greater than 100%. Work on O=C(C1CC1)N1CC[C@@H](C=C2NNC(=O)N2c2ccc(-c3ccc4occc4c3)cc2)C1 + O=C(c1c2ccccc2cc2ccccc12)N1CCC(N2CCC[C@@H](C(=O)N3CCOCC3)C2)CC1 [CP-640186] yielded a cell viability greater than 100%. Work on CC(C)c1onc(-c2c(Cl)cccc2Cl)c1COc1ccc(/C=C/c2cccc(C(=O)O)c2)c(Cl)c1 [GW4064] + Cn1cc(-c2ccncc2)c(-c2ccc(OCc3ccc4ccccc4n3)cc2)n1 [PF-02545920] yielded a cell viability of 94.5%.

Same assay, conditions: drug1 concentration 500 nM; drug2 concentration 50 nM; 72 h
For O=C(C1CC1)N1CC[C@@H](C=C2NNC(=O)N2c2ccc(-c3ccc4occc4c3)cc2)C1 + CS(=O)(=O)N1CCN(Cc2cc3nc(-c4cccc5[nH]ncc45)nc(N4CCOCC4)c3s2)CC1 [Pictilisib], the cell viability was 93.5%. In the case of O=C(C1CC1)N1CC[C@@H](C=C2NNC(=O)N2c2ccc(-c3ccc4occc4c3)cc2)C1 + C[C@H](NC(=O)c1sccc1OCc1ccc(Cl)cc1)c1ccccc1 [as1949490], the cell viability is reported as greater than 100%. O=C(C1CC1)N1CC[C@@H](C=C2NNC(=O)N2c2ccc(-c3ccc4occc4c3)cc2)C1 + O=C(c1c2ccccc2cc2ccccc12)N1CCC(N2CCC[C@@H](C(=O)N3CCOCC3)C2)CC1 [CP-640186] showed a cell viability of 83.6%. CC(C)c1onc(-c2c(Cl)cccc2Cl)c1COc1ccc(/C=C/c2cccc(C(=O)O)c2)c(Cl)c1 [GW4064] + Cn1cc(-c2ccncc2)c(-c2ccc(OCc3ccc4ccccc4n3)cc2)n1 [PF-02545920] showed a cell viability greater than 100%.

Same assay, conditions: drug1 concentration 500 nM; drug2 concentration 100 nM; 72 h
O=C(C1CC1)N1CC[C@@H](C=C2NNC(=O)N2c2ccc(-c3ccc4occc4c3)cc2)C1 + CS(=O)(=O)N1CCN(Cc2cc3nc(-c4cccc5[nH]ncc45)nc(N4CCOCC4)c3s2)CC1 [Pictilisib] was tested, and the cell viability was greater than 100%. O=C(C1CC1)N1CC[C@@H](C=C2NNC(=O)N2c2ccc(-c3ccc4occc4c3)cc2)C1 + C[C@H](NC(=O)c1sccc1OCc1ccc(Cl)cc1)c1ccccc1 [as1949490] showed a cell viability of 92.2%. Compound O=C(C1CC1)N1CC[C@@H](C=C2NNC(=O)N2c2ccc(-c3ccc4occc4c3)cc2)C1 + O=C(c1c2ccccc2cc2ccccc12)N1CCC(N2CCC[C@@H](C(=O)N3CCOCC3)C2)CC1 [CP-640186] has a cell viability greater than 100%. CC(C)c1onc(-c2c(Cl)cccc2Cl)c1COc1ccc(/C=C/c2cccc(C(=O)O)c2)c(Cl)c1 [GW4064] + Cn1cc(-c2ccncc2)c(-c2ccc(OCc3ccc4ccccc4n3)cc2)n1 [PF-02545920] was tested, and the cell viability was greater than 100%.

Same assay, conditions: drug1 concentration 500 nM; drug2 concentration 500 nM; 72 h
Work on O=C(C1CC1)N1CC[C@@H](C=C2NNC(=O)N2c2ccc(-c3ccc4occc4c3)cc2)C1 + CS(=O)(=O)N1CCN(Cc2cc3nc(-c4cccc5[nH]ncc45)nc(N4CCOCC4)c3s2)CC1 [Pictilisib] yielded a cell viability of 94.4%. O=C(C1CC1)N1CC[C@@H](C=C2NNC(=O)N2c2ccc(-c3ccc4occc4c3)cc2)C1 + C[C@H](NC(=O)c1sccc1OCc1ccc(Cl)cc1)c1ccccc1 [as1949490] gave a cell viability greater than 100%. O=C(C1CC1)N1CC[C@@H](C=C2NNC(=O)N2c2ccc(-c3ccc4occc4c3)cc2)C1 + O=C(c1c2ccccc2cc2ccccc12)N1CCC(N2CCC[C@@H](C(=O)N3CCOCC3)C2)CC1 [CP-640186] gave a cell viability greater than 100%. With CC(C)c1onc(-c2c(Cl)cccc2Cl)c1COc1ccc(/C=C/c2cccc(C(=O)O)c2)c(Cl)c1 [GW4064] + Cn1cc(-c2ccncc2)c(-c2ccc(OCc3ccc4ccccc4n3)cc2)n1 [PF-02545920] the cell viability was 70.1%.

Same assay, conditions: drug1 concentration 500 nM; drug2 concentration 1000 nM; 72 h
O=C(C1CC1)N1CC[C@@H](C=C2NNC(=O)N2c2ccc(-c3ccc4occc4c3)cc2)C1 + CS(=O)(=O)N1CCN(Cc2cc3nc(-c4cccc5[nH]ncc45)nc(N4CCOCC4)c3s2)CC1 [Pictilisib] showed a cell viability of 87.1%. O=C(C1CC1)N1CC[C@@H](C=C2NNC(=O)N2c2ccc(-c3ccc4occc4c3)cc2)C1 + C[C@H](NC(=O)c1sccc1OCc1ccc(Cl)cc1)c1ccccc1 [as1949490] showed a cell viability of 86.3%. O=C(C1CC1)N1CC[C@@H](C=C2NNC(=O)N2c2ccc(-c3ccc4occc4c3)cc2)C1 + O=C(c1c2ccccc2cc2ccccc12)N1CCC(N2CCC[C@@H](C(=O)N3CCOCC3)C2)CC1 [CP-640186] was tested, and the cell viability was greater than 100%. With CC(C)c1onc(-c2c(Cl)cccc2Cl)c1COc1ccc(/C=C/c2cccc(C(=O)O)c2)c(Cl)c1 [GW4064] + Cn1cc(-c2ccncc2)c(-c2ccc(OCc3ccc4ccccc4n3)cc2)n1 [PF-02545920] the cell viability was 95.5%.

Source: the supplement of paper PMC8671470
